Results as given in patent publication US8889881B2, “Compound having skin-whitening, anti-oxidizing and PPAR activities and medical use therefor” (Pusan National University Industry —University Cooperation …, priority 2011, dated 2014).

Tests used:
[1] = tested on: Mushroom-derived tyrosinase; assay: Tyrosinase inhibitory effect; type: biochemical; conditions: 1 mM L-tyrosin, pH 6.5, 25° C., 30 minutes, OD492; positive control kojic acid; FIGS. 3 and 4
Procedure: Mushroom-derived tyrosinase was sued as an enzyme source in the present experiment. Tyrosinase activities were assayed according to a slightly-modified conventionally known method (Life Sci., 1999, 65, 241-246). In detail, 20 μl of a mushroom-derived tyrosinase (1000 units) aqueous solution was added to 96-well microplate (Nunc, Denmark) to prepare 200 μl of the total volume of assay mixture containing 1 mM L-tyrosin solution and 50 mM phosphate buffer solution (pH 6.5). The assay mixture was cultured at a temperature of 25° C. for 30 minutes.

PPAR gamma-LBD = molecular target: T1, PPAR gamma-LBD (Homo sapiens, UniProt P37231); assay: PPAR assay, PPARγ; type: binding; conditions: sample final concentration 100 μM; positive control rosiglitazone; FIGS. 7 and 8
T1 sequence (P37231 238-503 limits assumed): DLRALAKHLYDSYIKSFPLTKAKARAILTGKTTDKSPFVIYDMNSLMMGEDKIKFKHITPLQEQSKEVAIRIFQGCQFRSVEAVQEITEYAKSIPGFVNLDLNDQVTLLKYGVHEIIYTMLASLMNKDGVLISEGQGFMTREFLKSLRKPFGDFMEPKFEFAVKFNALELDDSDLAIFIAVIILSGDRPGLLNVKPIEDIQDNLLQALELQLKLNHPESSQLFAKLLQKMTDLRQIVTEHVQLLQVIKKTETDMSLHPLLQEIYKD

PPAR alpha-LBD = molecular target: T2, PPAR alpha-LBD (Homo sapiens, UniProt Q07869); assay: PPAR assay, PPARα; conditions: for PPARα activation (competitive activation rate), compared with fenofibrate: sample final concentration 100 μM, positive control fenofibrate, FIGS. 5 and 6; for simultaneous activation of PPARα and PPARγ: summary of the PPARα and PPARγ assays, sample 100 μM
T2 sequence (Q07869 239-466 limits assumed): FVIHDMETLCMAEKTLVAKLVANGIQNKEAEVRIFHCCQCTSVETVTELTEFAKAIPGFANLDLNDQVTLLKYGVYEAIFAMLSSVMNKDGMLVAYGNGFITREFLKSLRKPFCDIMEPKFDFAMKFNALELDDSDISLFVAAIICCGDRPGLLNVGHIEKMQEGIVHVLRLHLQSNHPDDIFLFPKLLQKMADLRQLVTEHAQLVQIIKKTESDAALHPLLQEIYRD

[2] = tested on: YPEN-1 cells (rat prostatic endothelial cell line); assay: In vitro ROS scavenging activity assay (DCFDA); type: cell-based; conditions: cells pre-treated with 50 μM SIN-1 for 1 hour; DCFDA fluorescence; positive control trolox; FIGS. 1 and 2
Procedure: YPEN-1 cells (rat prostatic endothelial cell line) was obtained from American type culture collection (ATCC, Manassas, Va., USA), and the cells were cultured by using a dulbecco's modified eagle medium (DMEM, Nissui, Tokyo, Japan) containing 2 mM L-glutamine, […], 2.5 mg/L amphotericin B, and 5% inactivated fetal bovine serum (FBS). Also, the cells were maintained at a temperature of 37° C. in a humid atmosphere-like condition containing 5% CO2 and 95% air. […] The cells were sub-cultured in 100 mm plastic flask (Corning Co., New York, USA) every two days to maintain the cell line.
2′,7′-dichlorodihydrofluorescein diacetate (DCFDA) assay method according to a conventionally known method (Chem Res Toxicol. 5: 227-231, 1992) was used. In detail, 12.5 mM DCFDA dissolved in 99.9% ethanol and 600 U/ml esterase dissolved in tertiary distilled water were stored as a stock solution at a temperature of −20° C., and a 2′,7′-dichlorodihydrofluorescein (DCFH) solution prepared by mixing 10 mM DCFDA and 6 U/ml esterase was cultured at a temperature of 22° C. for 20 minutes, and then, refrigerated in a dark place before use. […] Vascular endothelial cells that were pre-treated with 50 μM 3-morpholinosydnonimine hydrochloride (SIN-1) for 1 hour were used as a reactive oxygen generation source.

Row | simultaneous activation of PPARα and PPARγ (PPAR alpha-LBD) | melting point | Compound | tyrosinase inhibitory activities, compared with kojic acid [1] | PPARγ activation (competitive activation rate), compared with rosiglitazone (PPAR gamma-LBD) | PPARα activation (competitive activation rate), compared with fenofibrate (PPAR alpha-LBD) | scavenging effects on ROS generated by vascular endothelial cells, compared with trolox [2]
1 | simultaneously activates PPARα and PPARγ |  | COc1cc(-c2nc3ccccc3[nH]2)cc(OC)c1O [Compound 55, 4-(1H-benzo[d]imidazol-2-yl)-2,6-dimethoxyphenol] | better tyrosinase inhibitory activities than a kojic acid | very excellent PPARγ activation agent compared to rosiglitazone | very excellent PPARα activation agent compared to fenofibrate | 
2 |  | 127.4 to 129.1 °C | Oc1ccc(-c2nc3cc(Cl)ccc3s2)cc1O [Compound 83, 4-(5-chlorobenzo[d]thiazol-2-yl)benzene-1,2-diol] | better tyrosinase inhibitory activities than a kojic acid |  |  | as high scavenging effects on ROS generated by vascular endothelial cells as trolox
3 | simultaneously activates PPARα and PPARγ | 155.8 to 158.6 °C | COc1cc(C2Nc3cc(Cl)ccc3S2)cc(OC)c1O (centres unmarked) [Compound 94, 4-(5-chloro-2,3-dihydrobenzo[d]thiazol-2-yl)-2,6-dimethoxyphenol] | better tyrosinase inhibitory activities than a kojic acid | very excellent PPARγ activation agent compared to rosiglitazone | very excellent PPARα activation agent compared to fenofibrate | as high scavenging effects on ROS generated by vascular endothelial cells as trolox
4 | simultaneously activates PPARα and PPARγ |  | CC(C)(Oc1ccc(-c2nc3cc(Cl)ccc3s2)cc1)C(=O)O [Compound 99, 2-(4-(5-chlorobenzo[d]thiazol-2-yl)phenoxy)-2-methylpropanoic acid] | better tyrosinase inhibitory activities than a kojic acid | very excellent PPARγ activation agent compared to rosiglitazone | very excellent PPARα activation agent compared to fenofibrate | 
